Patent US11111245B2, “Derivatives of N-cycloalkyl/heterocycloalkyl-4-(imidazo[1,2-a]pyridine)pyrimidin-2-amine as therapeutic agents” (Aucentra Therapeutics Pty Ltd, priority 2017, dated 2021)

Key:
CDK4/D1 = CDK4/D1 (Homo sapiens, UniProt P11802); experiment: ADP Glo Kinase assay CDK4/D1; format: biochemical; conditions: CDK4D1; for remaining activity at 10 µM: compound at 10 μM, read-out: residual activity (%) at 10 μM CDK4D1; for Ki: read-out: CDK inhibition, Ki (μM) CDK4D1
How it was run: (§1)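 CDK4/D1 and CDK6/D3 were run in […] Tris pH 7.5, 20 mM MgCl2, 0.4 mM DTT, 0.1 mg/ml BSA with RB-CTF substrate; CDK9/T1 used RBER-IRStide. ATP-started reactions ran 40 min at 37° C, with ADP Glo luminescence read-out. IC50 came from 4-parameter fits; Ki from Km (ATP) and IC50.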

CDK6/D3 = CDK6/D3 (Homo sapiens, UniProt Q00534); experiment: ADP Glo Kinase assay CDK6/D3; format: biochemical; conditions: CDK6D3; for remaining activity at 10 µM: compound at 10 μM, read-out: residual activity (%) at 10 μM CDK6D3; for Ki: read-out: CDK inhibition, Ki (μM) CDK6D3
Chain of CDK6/D3 (Q00534 whole entry): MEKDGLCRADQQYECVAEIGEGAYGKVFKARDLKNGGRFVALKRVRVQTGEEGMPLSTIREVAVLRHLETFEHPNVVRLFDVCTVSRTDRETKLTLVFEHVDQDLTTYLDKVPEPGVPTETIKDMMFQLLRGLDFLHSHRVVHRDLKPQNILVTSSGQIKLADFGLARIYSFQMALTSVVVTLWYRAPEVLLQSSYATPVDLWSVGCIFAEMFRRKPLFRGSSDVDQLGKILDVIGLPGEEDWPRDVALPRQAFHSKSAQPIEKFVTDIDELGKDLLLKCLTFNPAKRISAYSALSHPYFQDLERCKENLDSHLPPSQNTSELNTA
Chain of CDK6/D3 (P30281 whole entry partner): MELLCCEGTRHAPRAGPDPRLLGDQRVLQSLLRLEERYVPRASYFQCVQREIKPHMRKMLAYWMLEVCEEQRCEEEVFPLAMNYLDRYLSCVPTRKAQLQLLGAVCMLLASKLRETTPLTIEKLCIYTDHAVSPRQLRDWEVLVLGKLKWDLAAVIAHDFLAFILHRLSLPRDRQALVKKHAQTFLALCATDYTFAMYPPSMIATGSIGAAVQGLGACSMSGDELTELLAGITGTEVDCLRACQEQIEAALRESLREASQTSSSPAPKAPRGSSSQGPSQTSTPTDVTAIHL
How it was run: as §1

CDK9/T1 = CDK9/T1 (Homo sapiens, UniProt P50750); experiment: ADP Glo Kinase assay CDK9/T1; format: biochemical; conditions: CDK9T1; read-out: CDK inhibition, Ki (μM) CDK9T1
Chain of CDK9/T1 (P50750 whole entry): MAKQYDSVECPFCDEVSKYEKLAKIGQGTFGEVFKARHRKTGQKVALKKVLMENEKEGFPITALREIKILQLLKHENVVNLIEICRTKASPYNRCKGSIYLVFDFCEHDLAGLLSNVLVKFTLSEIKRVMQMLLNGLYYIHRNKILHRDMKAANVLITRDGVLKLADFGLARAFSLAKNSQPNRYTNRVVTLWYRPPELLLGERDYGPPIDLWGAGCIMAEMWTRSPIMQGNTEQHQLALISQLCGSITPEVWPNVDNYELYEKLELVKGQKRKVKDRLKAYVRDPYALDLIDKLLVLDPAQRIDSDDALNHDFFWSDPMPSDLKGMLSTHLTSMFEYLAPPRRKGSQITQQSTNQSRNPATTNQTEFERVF
Chain of CDK9/T1 (O60563 whole entry partner): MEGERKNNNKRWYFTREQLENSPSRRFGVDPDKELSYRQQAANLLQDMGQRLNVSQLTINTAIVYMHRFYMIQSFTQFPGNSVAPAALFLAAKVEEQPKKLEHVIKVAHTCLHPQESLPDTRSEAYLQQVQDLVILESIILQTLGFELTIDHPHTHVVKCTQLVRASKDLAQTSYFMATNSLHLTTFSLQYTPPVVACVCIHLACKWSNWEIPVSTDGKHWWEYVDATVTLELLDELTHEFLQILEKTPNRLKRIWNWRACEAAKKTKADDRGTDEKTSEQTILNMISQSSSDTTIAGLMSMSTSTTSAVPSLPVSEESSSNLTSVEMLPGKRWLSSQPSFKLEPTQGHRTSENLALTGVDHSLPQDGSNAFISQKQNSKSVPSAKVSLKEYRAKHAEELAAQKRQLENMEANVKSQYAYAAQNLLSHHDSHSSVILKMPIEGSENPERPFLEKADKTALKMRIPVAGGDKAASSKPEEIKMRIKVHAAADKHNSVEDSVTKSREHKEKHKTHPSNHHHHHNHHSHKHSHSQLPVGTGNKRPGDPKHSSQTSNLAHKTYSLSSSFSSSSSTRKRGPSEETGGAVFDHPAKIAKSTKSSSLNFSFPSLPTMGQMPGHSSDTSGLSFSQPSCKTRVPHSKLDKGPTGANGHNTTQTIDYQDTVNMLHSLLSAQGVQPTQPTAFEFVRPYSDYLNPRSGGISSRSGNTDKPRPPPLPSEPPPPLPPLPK
How it was run: (§2)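 Other CDKs and further kinases were profiled externally by radiometric assay. In-house ADP Glo assays covered CDK4/D1 and CDK6/D3 (RB-CTF substrate, pH 7.5 Tris buffer with MgCl2, DTT, BSA) and CDK9/T1 (RBER-IRStide substrate), 40 min at 37° C.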

CDKs and other kinases [1] = molecular target: T1, CDKs and other kinases (Homo sapiens, UniProt P06493); experiment: Radiometric kinase assay (Eurofins Pharma Discovery or Reaction Biology Corporation Kinase Profiler); format: biochemical; conditions: CDK1B; for remaining activity at 10 µM: compound at 10 μM, read-out: residual activity (%) at 10 μM CDK1B; for Ki: read-out: CDK inhibition, Ki (μM) CDK1B
T1 construct: other: CDK1B; residual activity (%) at 10 μM CDK1B; compound at 10 μM
T1 sequence (P06493 whole entry): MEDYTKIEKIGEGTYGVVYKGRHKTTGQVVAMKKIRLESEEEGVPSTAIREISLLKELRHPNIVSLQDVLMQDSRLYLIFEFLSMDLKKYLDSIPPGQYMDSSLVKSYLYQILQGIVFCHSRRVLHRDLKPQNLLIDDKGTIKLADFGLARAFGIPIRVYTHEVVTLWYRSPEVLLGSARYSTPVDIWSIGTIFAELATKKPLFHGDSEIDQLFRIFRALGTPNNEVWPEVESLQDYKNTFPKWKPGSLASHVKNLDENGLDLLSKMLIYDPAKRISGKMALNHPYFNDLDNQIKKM
How it was run: as §2

CDKs and other kinases [2] = molecular target: T2, CDKs and other kinases (Homo sapiens, UniProt P24941); experiment: as above; format: biochemical; conditions: CDK2A; for remaining activity at 10 µM: compound at 10 μM, read-out: residual activity (%) at 10 μM CDK2A; for Ki: read-out: CDK inhibition, Ki (μM) CDK2A
T2 construct: other: CDK2A; residual activity (%) at 10 μM CDK2A; compound at 10 μM
How it was run: as §2

CDKs and other kinases [3] = molecular target: T3, CDKs and other kinases (Homo sapiens, UniProt P50613); experiment: as above; format: biochemical; conditions: CDK7H; for remaining activity at 10 µM: compound at 10 μM, read-out: residual activity (%) at 10 μM CDK7H; for Ki: read-out: CDK inhibition, Ki (μM) CDK7H
T3 construct: other: CDK7H; residual activity (%) at 10 μM CDK7H; compound at 10 μM
T3 sequence (P50613 whole entry): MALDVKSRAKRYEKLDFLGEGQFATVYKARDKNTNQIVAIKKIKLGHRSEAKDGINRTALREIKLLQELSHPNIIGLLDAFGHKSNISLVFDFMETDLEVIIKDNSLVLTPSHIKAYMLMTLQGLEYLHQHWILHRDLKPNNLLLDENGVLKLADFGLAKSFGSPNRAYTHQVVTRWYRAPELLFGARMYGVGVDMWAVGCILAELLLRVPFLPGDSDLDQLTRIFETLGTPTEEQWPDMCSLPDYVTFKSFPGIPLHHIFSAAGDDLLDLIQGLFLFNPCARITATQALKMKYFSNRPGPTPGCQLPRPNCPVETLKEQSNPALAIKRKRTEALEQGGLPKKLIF
How it was run: as §2

leukemia cell lines = experiment: Resazurin cell viability assay on leukemia cell lines (72 h growth inhibition, GI50); format: cell-based; conditions: Homo sapiens, MV4-11 cells
How it was run: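 Solid tumour cells: MTT. Leukaemia cells: resazurin. GI50 fitted by non-linear regression.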

Chain of CDK4/D1 (P11802 whole entry): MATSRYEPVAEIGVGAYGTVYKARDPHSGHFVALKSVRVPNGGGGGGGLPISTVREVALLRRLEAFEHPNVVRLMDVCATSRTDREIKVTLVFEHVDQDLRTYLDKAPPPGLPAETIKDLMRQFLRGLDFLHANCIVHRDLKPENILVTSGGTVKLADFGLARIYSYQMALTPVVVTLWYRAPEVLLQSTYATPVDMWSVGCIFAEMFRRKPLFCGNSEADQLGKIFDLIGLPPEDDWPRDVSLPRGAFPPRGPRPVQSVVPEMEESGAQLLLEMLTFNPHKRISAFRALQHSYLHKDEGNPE
Chain of CDK4/D1 (P24385 whole entry partner): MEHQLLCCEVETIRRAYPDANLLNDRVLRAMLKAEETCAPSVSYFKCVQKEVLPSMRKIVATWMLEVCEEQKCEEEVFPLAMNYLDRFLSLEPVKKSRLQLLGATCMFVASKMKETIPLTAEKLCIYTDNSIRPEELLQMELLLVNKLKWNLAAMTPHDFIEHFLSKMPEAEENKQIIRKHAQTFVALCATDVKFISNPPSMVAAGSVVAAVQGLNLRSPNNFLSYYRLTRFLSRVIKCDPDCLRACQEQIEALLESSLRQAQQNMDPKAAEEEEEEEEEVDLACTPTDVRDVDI

Row | remaining activity at 10 µM (CDK4/D1) | remaining activity at 10 µM (CDK6/D3) | Ki (CDK9/T1) | remaining activity at 10 µM (CDKs and other kinases [1]) | remaining activity at 10 µM (CDKs and other kinases [2]) | remaining activity at 10 µM (CDKs and other kinases [3]) | GI50 (leukemia cell lines) | Ki (CDK4/D1) | Ki (CDK6/D3) | Ki (CDKs and other kinases [1]) | Ki (CDKs and other kinases [2]) | Ki (CDKs and other kinases [3]) | SMILES
1 | 37% | 58% | 0.089 µM | 22% | 27% | 27% | 0.179 ± 0.061 µM | – | – | – | – | – | Cc1cnc(N[C@H]2CC[C@@H](N)CC2)nc1-c1cnc2ccc(Nc3cccnc3)cn12 [Compound 92, (1s,4s)-N^1-(5-Methyl-4-(6-(pyridin-3-ylamino)imidazo [1,2-a]pyridin-3-yl)pyrimidin-2-yl)cyclohexane-1,4-diamine]
2 | 28% | 69% | 0.071 µM | 35% | 31% | 49% | 0.336 ± 0.082 µM | – | – | – | – | – | Cc1cnc(N[C@H]2CC[C@@H](N)CC2)nc1-c1cnc2ccc(Nc3cncnc3)cn12 [Compound 93, (1s,4s)-N^1-(5-Methyl-4-(6-(pyrimidin-5-ylamino)imidazo [1,2-a]pyridin-3-yl)pyrimidin-2-yl)cyclohexane-1,4-diamine]
3 | 25% | 45% | 0.388 µM | 20% | 12% | 10% | 0.748 ± 0.063 µM | – | – | – | – | – | Cc1cnc(NC2CCCC(N)C2)nc1-c1cnc2ccc(-c3ccccc3)cn12 (stereo not drawn) [Compound 94, N^1-(5-Methyl-4-(6-phenylimidazo[1,2-a]pyridin-3-yl)pyrimidin-2-yl)cyclohexane-1,3-diamine]
4 | 76% | 76% | 0.198 µM | 59% | 28% | 33% | 0.646 ± 0.129 µM | – | – | – | – | – | Cc1cnc(NC2CCCC(N)C2)nc1-c1cnc2ccc(Nc3cccnc3)cn12 (stereo not drawn) [Compound 95, N^1-(5-Methyl-4-(6-(pyridin-3-ylamino)imidazo[1,2-a]pyridin-3-yl)pyrimidin-2-yl)cyclohexane-1,3-diamine]
5 | 49% | 90% | 0.193 µM | 63% | 37% | 63% | > 10 µM | – | – | – | – | – | Cc1cnc(NC2CCCC(N)C2)nc1-c1cnc2ccc(Nc3cncnc3)cn12 (stereo not drawn) [Compound 96, N^1-(5-Methyl-4-(6-(pyrimidin-5-ylamino)imidazo[1,2-a]pyridin-3-yl)pyrimidin-2-yl)cyclohexane-1,3-diamine]
6 | 54% | 39% | 0.016 µM | 28% | 32% | 9% | 0.058 ± 0.002 µM | – | – | – | – | – | Cc1cnc(NC2CCC(N(C)C)CC2)nc1-c1cnc2ccc(-c3ccccc3)cn12 (stereo not drawn) [Compound 97, N^1,N^1-Dimethyl-N^4-(5-methyl-4-(6-phenylimidazo[1,2-^a]pyridin-3-yl)pyrimidin-2-yl)cyclohexane-1,4-diamine]
7 | – | – | 0.004 µM | – | – | – | 0.153 ± 0.021 µM | 0.78 µM | 0.53 µM | 1.5 µM | 0.31 µM | 1.67 µM | Cc1cnc(NC2CCC(N(C)C)CC2)nc1-c1cnc2ccc(Nc3cccnc3)cn12 (stereo not drawn) [Compound 98, N^1,N^1-Dimethyl-N^4-(5-Methyl-4-(6-(pyridin-3-ylamino)imidazo[1,2-a]pyridin-3-yl)pyrimidin-2-yl)cyclohexane-1,4-diamine]
8 | – | – | 0.006 µM | – | – | – | 0.265 ± 0.034 µM | 1.16 µM | 0.51 µM | 1.66 µM | 0.48 µM | 3.1 µM | Cc1cnc(NC2CCC(N(C)C)CC2)nc1-c1cnc2ccc(Nc3cncnc3)cn12 (stereo not drawn) [Compound 99, N^1,N^1-dimethyl-N^4-(5-Methyl-4-(6-(pyrimidin-5-ylamino)imidazo[1,2-a]pyridin-3-yl)pyrimidin-2-yl)cyclohexane-1,4-diamine]
9 | 96% | 84% | > 5 µM | 87% | 79% | 98% | > 10 µM | – | – | – | – | – | Cc1cnc(N[C@]23C[C@@]4(C)C[C@](C)(C[C@](O)(C4)C2)C3)nc1-c1cnc2ccc(-c3ccccc3)cn12 [Compound 100, (1s,3R,5S,7r)-3,5-Dimethyl-7-((5-methyl-4-(6-phenylimidazo[1,2-a]pyridin-3-yl)pyrimidin-2-yl)amino)adamantan-1-ol]
10 | 97% | 100% | 0.561 µM | 60% | 41% | 85% | > 10 µM | – | – | – | – | – | Cc1cnc(N[C@]23C[C@@]4(C)C[C@](C)(C[C@](O)(C4)C2)C3)nc1-c1cnc2ccc(Nc3cccnc3)cn12 [Compound 101, (1s,3R,5S,7r)-3,5-Dimethyl-7-((5-methyl-4-(6-(pyridin-3-ylamino)imidazo[1,2-a]pyridin-3-yl)pyrimidin-2-yl)amino)adamantan-1-ol]
11 | 73% | 100% | 0.109 µM | 36% | 22% | 85% | 0.059 ± 0.019 µM | – | – | – | – | – | Cc1cnc(N[C@]23C[C@@]4(C)C[C@](C)(C[C@](O)(C4)C2)C3)nc1-c1cnc2ccc(Nc3cncnc3)cn12 [Compound 102, (1s,3R,5S,7r)-3,5-Dimethyl-7-((5-methyl-4-(6-(pyrimidin-5-ylamino)imidazo[1,2-a]pyridin-3-yl)pyrimidin-2-yl)amino)adamantan-1-ol]
12 | 30% | 45% | 0.203 µM | 4% | 1% | 40% | > 10 µM | – | – | – | – | – | Cc1cnc(NC2CCOCC2)nc1-c1cnc2ccc(Nc3cccnc3)cn12 [Compound 103, 3-(5-Methyl-2-((tetrahydro-2H-pyran-4-yl)amino)pyrimidin-4-yl)-N-(pyridin-3-yl)imidazo[1,2-a]pyridin-6-amine]
13 | 70% | 73% | 0.155 µM | 4% | 2% | 57% | 4.76 ± 1.16 µM | – | – | – | – | – | Cc1cnc(NC2CCOCC2)nc1-c1cnc2ccc(Nc3cncnc3)cn12 [Compound 104, 3-(5-Methyl-2-((tetrahydro-2H-pyran-4-yl)amino)pyrimidin-4-yl)-N-(pyrimidin-5-yl)imidazo[1,2-a]pyridin-6-amine]
14 | 93% | 94% | 0.188 µM | 7% | 3% | 15% | 0.748 ± 0.063 µM | – | – | – | – | – | Cc1cnc(N[C@H]2CC[C@H](O)CC2)nc1-c1cnc2ccc(-c3ccccc3)cn12 [Compound 105, (1r,4r)-4-((5-Methyl-4-(6-phenylimidazo[1,2-a]pyridin-3-yl)pyrimidin-2-yl)amino)cyclohexan-1-ol]
15 | 43% | 71% | 0.042 µM | 5% | 2% | 25% | 0.851 ± 0.048 µM | – | – | – | – | – | Cc1cnc(N[C@H]2CC[C@H](O)CC2)nc1-c1cnc2ccc(Nc3cccnc3)cn12 [Compound 106, (1r,4r)-4-((5-Methyl-4-(6-(pyridin-3-ylamino)imidazo [1,2-a]pyridin-3-yl)pyrimidin-2-yl)amino)cyclohexan-1-ol]
